Values joined by “and” are separate entries in the source; they are usually repeats but may differ in a detail not shown here. Equal entries are not always repeated. Inconclusive results and toxic doses are left out. The calls were made as follows: active = survival T/C of 150% or more; inactive = T/C below 125% in these data.
Test system: P388 leukemia ip, CD2F1 mice, survival T/C
Assay: NCI In Vivo Anticancer Drug Screen. Data for tumor model P388 Leukemia (intraperitoneal) in CD2F1 (CDF1) mice
Conditions: endpoint: median survival time, higher = longer survival
How it was run: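 Mice carrying the transplanted tumor received test compound or vehicle. Survival was recorded in each group, and the value is the treated-group measurement divided by that of the vehicle-treated control group.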

[1] = dose: 12.5 mg/kg/injection, schedule: Q01DX009 (ip), vehicle: saline with Tween-80
[2] = dose: 25.0 mg/kg/injection, schedule: Q01DX009 (ip), vehicle: saline with Tween-80
[3] = dose: 50.0 mg/kg/injection, schedule: Q01DX009 (ip), vehicle: saline with Tween-80
[4] = dose: 100.0 mg/kg/injection, schedule: Q01DX009 (ip), vehicle: saline with Tween-80
[5] = dose: 200.0 mg/kg/injection, schedule: Q01DX009 (ip), vehicle: saline with Tween-80
[6] = dose: 50.0 mg/kg/injection, schedule: Q01DX009 (ip), vehicle: Klucel (hydroxypropylcellulose) (HPC)
[7] = dose: 100.0 mg/kg/injection, schedule: Q01DX009 (ip), vehicle: Klucel (hydroxypropylcellulose) (HPC)
[8] = dose: 200.0 mg/kg/injection, schedule: Q01DX009 (ip), vehicle: Klucel (hydroxypropylcellulose) (HPC)
[9] = dose: 60.0 mg/kg/injection, schedule: Q01DX005 (ip), vehicle: saline with Tween-80
[10] = dose: 120.0 mg/kg/injection, schedule: Q01DX005 (ip), vehicle: saline with Tween-80
[11] = dose: 240.0 mg/kg/injection, schedule: Q01DX005 (ip), vehicle: saline with Tween-80
[12] = dose: 50.0 mg/kg/injection, schedule: Q01DX005 (ip), vehicle: distilled water + alcohol
[13] = dose: 100.0 mg/kg/injection, schedule: Q01DX005 (ip), vehicle: distilled water + alcohol
[14] = dose: 200.0 mg/kg/injection, schedule: Q01DX005 (ip), vehicle: distilled water + alcohol
[15] = dose: 50.0 mg/kg/injection, schedule: Q01DX005 (ip), vehicle: saline with Tween-80
[16] = dose: 100.0 mg/kg/injection, schedule: Q01DX005 (ip), vehicle: saline with Tween-80
[17] = dose: 200.0 mg/kg/injection, schedule: Q01DX005 (ip), vehicle: saline with Tween-80
[18] = dose: 12.5 mg/kg/injection, schedule: Q01DX009 (ip), vehicle: Klucel (hydroxypropylcellulose) (HPC)
[19] = dose: 25.0 mg/kg/injection, schedule: Q01DX009 (ip), vehicle: Klucel (hydroxypropylcellulose) (HPC)

Measured: T/C

CC1CCCC(C)N1C1=NCCO1 (stereo unspecified)
inactive: dose: 5.0 mg/kg/injection, schedule: Q04DX003 (ip), vehicle: saline 95 % of control | dose: 10.0 mg/kg/injection, schedule: Q04DX003 (ip), vehicle: saline 100 % of control | dose: 20.0 mg/kg/injection, schedule: Q04DX003 (ip), vehicle: saline 95 % of control

c1ccc(-c2ccccc2NC2=NCCO2)cc1
inactive: [1] 104 % of control | [2] 104 % of control | [3] 95 % of control

S=C(Nc1ccc(Cl)cc1)SSC(Cl)(Cl)Cl
inactive: [1] 91 % of control | [2] 100 % of control | dose: 50.0 mg/kg/injection, schedule: Q01DX009 (ip), vehicle: saline + alcohol 112 % of control | [3] 115 % of control

NC(=S)N/N=C/c1c(-c2ccc(Cl)cc2)nc2n1CCS2
inactive: dose: 100.0 mg/kg/injection, schedule: Q01DX001 (ip), vehicle: Klucel (hydroxypropylcellulose) (HPC) 97 % of control | dose: 200.0 mg/kg/injection, schedule: Q01DX001 (ip), vehicle: Klucel (hydroxypropylcellulose) (HPC) 100 % of control | dose: 400.0 mg/kg/injection, schedule: Q01DX001 (ip), vehicle: Klucel (hydroxypropylcellulose) (HPC) 97 % of control

O=C(CC1C2CC3CC(C2)CC1C3)C1C2CC3CC(C2)CC1C3 (stereo unspecified)
inactive: [3] 97 % of control | [4] 97 % of control | [5] 97 % of control

Cc1cc(-c2ccccc2)n(C(C(=O)c2ccccc2)c2ccccc2)n1 (stereo unspecified)
inactive: [3] 101 % of control | [4] 106 % of control | [5] 100 % of control

N#CC1C(=O)NC(=O)C(C#N)C1c1ccc(Cl)cc1 (stereo unspecified)
inactive: [6] 101 % of control | [7] 100 % of control | [8] 101 % of control

O=C(O)/C=C\c1c[nH]c2ccccc12
inactive: [9] 94 % of control | [10] 94 % of control | [11] 88 % of control

COc1cccc2c1C(=O)c1c(O)c3c(c(O)c1C2=O)C[C@@](O)(C(C)=O)C[C@@H]3OC1CC(N=C(N)CCSSCCC(N)=NC2CC(O[C@H]3C[C@](O)(C(C)=O)Cc4c(O)c5c(c(O)c43)C(=O)c3c(OC)cccc3C5=O)OC(C)C2O)C(O)C(C)O1 (stereo partly specified)
inactive: dose: 3.12 mg/kg/injection, schedule: Q04DX003 (ip), vehicle: distilled water + Tween-80 115 % of control | dose: 6.25 mg/kg/injection, schedule: Q04DX003 (ip), vehicle: distilled water + Tween-80 108 % of control and 122 % of control | dose: 12.5 mg/kg/injection, schedule: Q04DX003 (ip), vehicle: distilled water + Tween-80 118 % of control | dose: 25.0 mg/kg/injection, schedule: Q04DX003 (ip), vehicle: distilled water + Tween-80 116 % of control | dose: 50.0 mg/kg/injection, schedule: Q04DX003 (ip), vehicle: distilled water + Tween-80 105 % of control | dose: 100.0 mg/kg/injection, schedule: Q04DX003 (ip), vehicle: distilled water + Tween-80 121 % of control

C=C1C(=O)OC2C1C(OC(=O)/C(C)=C/C)CC1(C)OC1C1OC1C1(CO1)C2O (stereo unspecified)
inactive: dose: 5.0 mg/kg/injection, schedule: Q01DX005 (ip), vehicle: Klucel (hydroxypropylcellulose) (HPC) 106 % of control | dose: 10.0 mg/kg/injection, schedule: Q01DX005 (ip), vehicle: Klucel (hydroxypropylcellulose) (HPC) 97 % of control | dose: 20.0 mg/kg/injection, schedule: Q01DX005 (ip), vehicle: Klucel (hydroxypropylcellulose) (HPC) 95 % of control | dose: 40.0 mg/kg/injection, schedule: Q01DX005 (ip), vehicle: Klucel (hydroxypropylcellulose) (HPC) 104 % of control | dose: 80.0 mg/kg/injection, schedule: Q01DX005 (ip), vehicle: Klucel (hydroxypropylcellulose) (HPC) 116 % of control

Oc1cc2c(cc1C(c1ccc3c(c1)OCO3)n1ccnc1)OCO2 (stereo unspecified)
inactive: [9] 108 % of control | [10] 98 % of control | [11] 94 % of control

CC(=O)OCc1cc(-c2nc3ccccc3[nH]c2=O)nn1-c1ccc(Cl)cc1
inactive: dose: 25.0 mg/kg/injection, schedule: Q01DX005 (ip), vehicle: distilled water + alcohol 93 % of control | [12] 90 % of control | [13] 86 % of control | [14] 87 % of control

CCCCNCC(O)c1cc2c(Cl)cc(Cl)cc2c2cc(C(F)(F)F)ccc12 (stereo unspecified)
inactive: dose: 6.25 mg/kg/injection, schedule: Q01DX009 (ip), vehicle: saline with Tween-80 98 % of control | [1] 106 % of control | [2] 102 % of control

O=c1oc(-c2ccccc2)nc2cc(Cl)ccc12
inactive: dose: 100.0 mg/kg/injection, schedule: Q04DX003 (ip), vehicle: Klucel (hydroxypropylcellulose) (HPC) 100 % of control | dose: 200.0 mg/kg/injection, schedule: Q04DX003 (ip), vehicle: Klucel (hydroxypropylcellulose) (HPC) 90 % of control | dose: 400.0 mg/kg/injection, schedule: Q04DX003 (ip), vehicle: Klucel (hydroxypropylcellulose) (HPC) 107 % of control

COC(=O)c1cn(C2OC(CO)C(O)C2O)c2ncnc(N)c12 (stereo unspecified)
inactive: dose: 3.75 mg/kg/injection, schedule: Q01DX005 (ip), vehicle: saline with Tween-80 103 % of control | dose: 7.5 mg/kg/injection, schedule: Q01DX005 (ip), vehicle: saline with Tween-80 104 % of control | dose: 15.0 mg/kg/injection, schedule: Q01DX005 (ip), vehicle: saline with Tween-80 117 % of control and 98 % of control | [9] 100 % of control

Cc1ccc(S(=O)(=O)NC(=O)C2C(=O)CC3(CCCCC3)CC2=O)cc1
inactive: [6] 117 % of control | [7] 123 % of control | [8] 124 % of control

Cc1c(-c2ccccc2)oc(=O)c(Cl)c1N(c1ccccc1)c1ccccc1
inactive: [15] 93 % of control | [16] 98 % of control | [17] 90 % of control

Cn1c(C=O)cnc1[N+](=O)[O-]
inactive: [18] 108 % of control | [19] 111 % of control | [6] 111 % of control and 115 % of control

CCSC(=Nc1nc2ccc([N+](=O)[O-])cc2s1)SCC
inactive: dose: 6.25 mg/kg/injection, schedule: Q01DX009 (ip), vehicle: Klucel (hydroxypropylcellulose) (HPC) 104 % of control | [18] 111 % of control | [19] 98 % of control

O=C(c1ccc(Cl)nc1)c1cccs1
inactive: [12] 98 % of control | [13] 108 % of control | [14] 110 % of control

CC(=O)CC(=O)c1ccc(C)cc1.CC(=O)CC(=O)c1ccc(C)cc1.[Cu]
inactive: [2] 98 % of control | [3] 108 % of control and 113 % of control

CCOC(=O)N1CC2C=CC1C(C(=O)OC)=C2C(=O)OC (stereo unspecified)
inactive: [6] 109 % of control | [7] 113 % of control | [8] 113 % of control

CSc1ccccc1P(c1ccccc1)c1ccccc1
inactive: [6] 109 % of control | [7] 115 % of control | [8] 105 % of control

CCOC(=O)c1ccc(NC(=O)Oc2ccc(NC(C)=O)cc2)cc1
inactive: dose: 60.0 mg/kg/injection, schedule: Q01DX005 (ip), vehicle: Klucel (hydroxypropylcellulose) (HPC) 98 % of control | dose: 120.0 mg/kg/injection, schedule: Q01DX005 (ip), vehicle: Klucel (hydroxypropylcellulose) (HPC) 92 % of control | dose: 240.0 mg/kg/injection, schedule: Q01DX005 (ip), vehicle: Klucel (hydroxypropylcellulose) (HPC) 92 % of control

CC(C)NC(=S)NCc1ccc(Cl)c(Cl)c1
inactive: dose: 50.0 mg/kg/injection, schedule: Q01DX009 (ip), vehicle: other 88 % of control | dose: 100.0 mg/kg/injection, schedule: Q01DX009 (ip), vehicle: other 96 % of control

CCCCCC(O)C1C(=O)OC(C)C(O)/C=C/C=C/C=C/C=C\C=C(\C)C(O)CC(O)CC(O)CC(O)CC(O)CC(O)CC1O (stereo unspecified)
inactive: dose: 10.0 mg/kg/injection, schedule: Q04DX003 (ip), vehicle: other 104 % of control | dose: 20.0 mg/kg/injection, schedule: Q04DX003 (ip), vehicle: other 95 % of control | [15] 108 % of control | [16] 107 % of control | [17] 103 % of control

— PubChem BioAssay AID330 (DTP/NCI, 2004)
